Results reported in US6737425B1, “N,N-substituted cyclic amine derivatives” (Eisai Co., Ltd., priority 1998, dated 2004).
Where “and” joins values, the source holds several entries; their conditions need not be identical. Equal values may be shown once.

Tests used:
mice in a formalin test = test: Antalgic effect (II) on mice in a formalin test (comparison with morphine and indomethacin); assay type: in vivo
Protocol: Antalgic Effect (II) on Mice in a Formalin Test
The typical example of the compound of the present invention (the compound in Example 1) was compared with morphine and indomethacin in the same manner as in Pharmacological Experimental Example 5 above.
20.4 mg of the compound of the present invention was weighed, and 10.2 ml of 5.28% mannitol was added thereto to prepare 2 mg/ml (20 mg/kg) solution. Then, 3.8 ml of 5.28% mannitol was added to 3.8 ml of the 2 mg/ml solution to prepare 1 mg/ml (10 mg/kg) solution. Finally, 2.5 ml of 5.28% mannitol was added to 2.5 ml of the 1 mg/ml solution to prepare 0.5 mg/ml (5 mg/kg) solution. The test compound was weighed and prepared on the day when the experiment was conducted.
b-1) Morphine 17.0 mg of morphine purchased as a reagent was weighed, and 5.67 ml physiological saline was added thereto to form 3 mg/ml (30 mg/kg) solution. Then, 2.6 ml physiological saline was added to 1.3 ml of the 3 mg/ml solution to prepare 1 mg/ml (10 mg/kg) solution. Finally, 2.1 ml physiological saline was added to 0.9 ml of the 1 mg/ml solution to prepare 0.3 mg/ml (3 mg/kg) solution. The test compound was weighed and prepared on the day when the experiment was conducted.
12.9 mg of indomethacin purchased as a reagent was weighed, and 12.9 ml of 0.5% methyl cellulose (MC) was added thereto to form 1 mg/ml (10 mg/kg) suspension. Then, 2.24 ml of 0.5% MC was added to 0.96 ml of the 1 mg/ml suspension to prepare 0.3 mg/ml (3 mg/kg) suspension. Finally, 1.6 ml of 0.5% MC was added to 0.8 ml of the 0.3 mg/ml suspension to prepare 0.1 mg/ml (1 mg/kg) suspension. The test compound was weighed and prepared on the day when the experiment was conducted.
The treatment group by the compound of the present invention consisted of 4 groups in total, that is, a control group, a 5 mg/kg compound administration group, a 10 mg/kg compound administration group, and a 20 mg/kg compound administration group, and each group consisted of 5 animals.
The control group was given 0.1 ml of 5.28% mannitol per 10 g of the body weight via the tail vein. The compound of the present invention was administered via the tail vein at each concentration (0.5 mg/ml, 1 mg/ml, and 2 mg/ml) in an volume of 0.1 ml per 10 g of the body weight into the 5 mg/kg group, 10 mg/kg group and 20 mg/kg group, respectively.
The treatment group by morphine consisted of 4 groups in total, that is, a control group, a 3 mg/kg morphine administration group, a 10 mg/kg morphine administration group, and a 30 mg/kg morphine administration group, and each group consisted of 5 animals.
The control group was orally given 0.1 ml of physiological saline per 10 g of the body weight. Morphine was orally administered at each concentration (0.3 mg/ml, 1 mg/ml, and 3 mg/ml) in a volume of 0.1 ml per 10 g of the body weight into the 3 mg/kg group, 10 mg/kg group and 30 mg/kg group, respectively.
The treatment group by indomethacin consisted of 4 groups in total, that is, a control group, a 1 mg/kg indomethacin administration group, a 3 mg/kg indomethacin administration group, and a 10 mg/kg indomethacin administration group, and each group consisted of 5 animals.
The control group was orally given 0.1 ml of 0.5% MC per 10 g of the body weight. Indomethacin was orally administered at each concentration (0.1 mg/ml, […], and 1 mg/ml) in a volume of 0.1 ml per 10 g of the body weight into the 1 mg/kg group, 3 mg/kg group and 10 mg/kg group, respectively.
5.28% mannitol was administered via the tail vein into each group given the compound of the present invention or into the control group, and the animals were placed in a transparent plastic observation cage. 5 minutes later, 20 μl of 3% formalin was subcutaneously administered into the bottom of the left hind leg of each mouse. The duration of the behavior of mouse's licking the left hind leg after administration of formalin was measured for 5 minutes and used as an indication of pain. The duration was expressed in second. […]

[1] = tested on: rat model with local cerebral ischemia; conditions: literature reports (13, 14, 15); cited from earlier work
[2] = tested on: voltage-dependent calcium channels (cerebral cortex synaptosome); test: Measurement of voltage-dependent calcium channel activity by the use of a fluorescent pigment (fura 2); assay type: cell-based; conditions: rat cerebral cortex synaptosome, fura 2, KCl stimulation, compound incubated 10 minutes
Method in brief: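 Synaptosomes were prepared from rat cerebral cortex by sucrose homogenisation and 0.8 M sucrose gradient centrifugation. They were loaded with fura-2/AM by mixing with an equal volume of 4 μM loading solution for 40 min at room temperature. Verapamil hydrochloride served as the reference compound.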

[3] = tested on: glutamic acid release from rat cerebral cortex slices; test: Inhibitory activity on glutamic acid release (cerebral cortex slices, high-conc. KCl); assay type: cell-based; conditions: Rattus norvegicus, glutamic acid release induced with 50 mM KCl, HPLC
Protocol: Inhibitory Activity on Glutamic Acid Release
Cerebral cortexes were isolated from SD strain male rats (8-week-old) and used to prepare 300 μm×300 μm slices by use of a slice chopper. The prepared slices were incubated at 37° C. for 30 minutes in solution C (120 mM NaCl, 4 mM KCl, 10 mM MgSO4, 16 mM NaHCO3, 10 mM glucose, 1 mM NaH2PO4, 10 mM HEPES-NaOH pH 7.4) in the presence of 95% O2/5% CO2. Thereafter, solution C was exchanged with fresh one, followed by further incubation for 30 minutes.
The cerebral cortex slices were incubated in a 24-wells plate for cell culture according to a multi-well method (Brain Res., 402, 255-263, 1987), and the release of glutamic acid was induced with 50 mM KCl. Solution D (120 mM NaCl, 4 mM KCl, 1.2 mM CaCl2, 1 mM MgSO4, 16 mM NaHCO3, 10 mM glucose, 1 mM NaH2PO4, 10 mM HEPES-NaOH pH 7.4) was aerated with 95% O2/5% CO2 and kept at 37° C. and used in this experiment. 50 mM KCl containing the same total amount of K^+ and Na^+ was prepared. Slices corresponding to 1 to 2 mg protein were placed on an upper cup provided with a mesh at the bottom, and 1.3 ml solution C or 50 mM KCl solution was introduced into a lower well, and the upper cup was transferred to a new well. 20 minutes before and 5 minutes after reaction was intiated, the test compound was added to solution D or 50 mM KCl.
Glutamic acid was quantified by HPLC using fluorescent etor (Ex. 330 nm Em. […]). The eluting solvent used was prepared by diluting 150 ml sodium citrate buffer for automatic amino acid analysis (Wako Pure Chemical Industries) 10-fold with distilled water, then adding MgCl2 thereto at the final concentration of 50 mM, and further diluting it twice with acetonitrile. The flow rate was 2.0 ml/min. The column used was Asahipak (ES-502N Denko, K. K.). The glutamic acid was converted into a derivative by addition, to 50 μl sample, of 50 μl deriving agent (10 mg o-phthalaldehyde/500 μl MeOH, 10 μl b-mercaptopropionic acid, 0.15 M sodium borate buffer pH 9.5, 100 μl) followed by stirring (Neuroscience Lett., 96, 202-206, 1989).

formalin test = conditions: administered into spinal cord, literature reports (1, 2); cited from earlier work
[4] = tested on: rat model with occlusion in the middle cerebral artery; test: Effect (II) of reducing infarct volume in a rat model with occlusion in the middle cerebral artery (permanent occlusion); assay type: in vivo
Protocol: Effect (II) of Reducing Infarct volume in a Rat Model with Occlusion in the Middle Cerebral Artery
The typical example of the compound of the present invention (the compound in Example 1) was compared with compounds disclosed in JP 8-508037-A (WO 94/25469, U.S. Pat. No. 5,750,525), which have affinity for AMPA receptors and is effective against cellular necrosis after ischemia in anoxia and hypocalcemia.
The compound of the present invention was dissolved in physiological saline to be adjusted to a dosage of 10 or 20 mg/kg/h just before use.
The control compound was dissolved in physiological saline to be adjusted to a dosage of 3 mg/kg/h just before use.
Occlusion in the middle cerebral artery was conducted according to the method described above. However, the middle cerebral artery was permanently occluded without removing the nylon embolus.
Two hours after the middle cerebral artery was occluded, a syringe containing the medium or the sample (10 or 20 mg/kg/h) was attached to a catheter for intravenous administration, and half (0.31 ml) of the dosage to be infused for 1 hour was intravenously administered for 1 minute. Thereafter, the medium or the sample was administered continuously for 6 hours at a rate of 0.616 ml/h by the use of a syringe pump for infusion. During administration and for 2 hours after administration was finished, the temperature of the rectum was maintained in the range of 37.0 to 38.5° C. in a system for controlling body temperature. After the body temperature control was finished, the animal was returned to a cage and maintained for 1 day in a breeding room.
Two hours after the middle cerebral artery was occluded, a syringe containing the medium or the sample (3 mg/kg/h) was attached to a catheter for intravenous administration, and the medium or the sample was administered continuously for 6 hours at a rate of 0.616 ml/h by means of the syringe pump for infusion. During administration and for 2 hours after administration was finished, the temperature of the rectum was maintained in the range of 37.0 to 38.5° C. in the system for controlling body temperature. After the body temperature control was finished, the animal was returned to a cage and maintained for 1 day in a breeding room.
The middle cerebral artery was permanently occluded by the nylon embolus, and the infarct volume was measured 24 hours after the occlusion was conducted.

## CN1CC[C@]23c4c5ccc(O)c4O[C@H]2[C@@H](O)C=C[C@H]3[C@H]1C5 [morphine]
Mice in a formalin test; 3 mg/kg p.o., formalin 30 minutes later
  average left hind leg-licking time, Mean: 68.2 s
Mice in a formalin test; 10 mg/kg p.o., formalin 30 minutes later
  average left hind leg-licking time, Mean: 58.0 s
Mice in a formalin test; 30 mg/kg p.o., formalin 30 minutes later
  average left hind leg-licking time, Mean: 29.6 s

## COc1ccc2c(c1)c(CC(=O)O)c(C)n2C(=O)c1ccc(Cl)cc1 [indomethacin]
Mice in a formalin test; 1 mg/kg p.o., formalin 90 minutes later
  average left hind leg-licking time, Mean: 87.8 s
Mice in a formalin test; 3 mg/kg p.o., formalin 90 minutes later
  average left hind leg-licking time, Mean: 75.8 s
Mice in a formalin test; 10 mg/kg p.o., formalin 90 minutes later
  average left hind leg-licking time, Mean: 84.0 s
Mice in a formalin test; overall conclusion of the comparison
  antalgic effect in the formalin test: does not have any effect

## ω-agatoxin IVA
[1]
  protective action on nerve cells: has a protective action on nerve cells

## CC(C)C(C#N)(CCCN1CCN(CCOc2ccc(F)cc2)CC1)c1cccs1 (centres unmarked) [Example 20, 1-{[4-Cyano-5-methyl-4-(2-thienyl)hexyl]}-4-[2-(4-fluorophenoxy)ethyl]piperazine]
[2]
  IC50: 5.5 µM
[3]
  IC50: 1.9 µM

## CSCC[C@@H]1NC(=O)[C@H](CC(C)C)NC(=O)[C@H](CCCNC(=N)N)NC(=O)[C@H](CO)NC(=O)[C@@H]2CSSC[C@@H]3NC(=O)[C@H](CO)NC(=O)CNC(=O)[C@H]([C@@H](C)O)NC(=O)[C@H](CSSC[C@H](N)C(=O)N[C@@H](CCCCN)C(=O)NCC(=O)N[C@@H](CCCCN)C(=O)NCC(=O)N[C@@H](C)C(=O)N[C@@H](CCCCN)C(=O)N2)NC(=O)[C@H](CSSC[C@@H](C(N)=O)NC(=O)[C@H](CCCCN)NC(=O)CNC(=O)[C@H](CO)NC(=O)[C@H](CCCNC(=N)N)NC3=O)NC(=O)[C@H](CC(=O)O)NC(=O)[C@H](Cc2ccc(O)cc2)NC1=O [SNX-111]
[1]
  protective action on nerve cells: serves for protection against the liberation of glutamic acid from the cerebral cortex and against the subsequent disturbance of nerve cells
Formalin test
  antalgic action: has an antalgic action

## O=c1[nH]c2cc(C(F)(F)F)c(N3CCOCC3)cc2n(CP(=O)(O)O)c1=O [control compound, {[3,4-Dihydro-7-(4-morpholinyl)-2,3-dioxo-6-(trifluoromethyl)-1-(2H)-quinoxalinyl]methyl}phosphonic acid, reference compound]
[4]; 3 mg/kg/h i.v.
  infarct volume compared with the control group: no difference from the control group
[4]; 3 mg/kg/h i.v. (table: 3 mg/kg), from two hours after occlusion, 6 hours, 24 hours after occlusion
  Infarct volume in the cerebral cortex, Mean: 284.9±10.9 mm^3 and 284.9 mm^3
